Source: US4874882A, “Process for preparing monosodium phosphoenolpyruvate” (Ube Industries, Ltd., priority 1986, dated 1989)

Assays:
[1] = tested on: ischemic kidney of rabbit; assay: Effect on ischemic kidney of rabbit (BUN and creatinine value in blood, recovery of renal function); assay type: in vivo, male Japanese white-strain rabbits
From the text: The animals used in this experiment were 10 male Japanese white-strain rabbits, and were grouped into a group of 5 rabbits to which the injection of monosodium phosphoenolpyruvate (hereinafter simply called "PEP·Na") prepared in Example 4 should be administered and a group of 5 rabbits to which a physiological saline should be administered,to carry out experiments as follows:
To each of the rabbits used in this experiment, a 1% aqueous solution of pentobarbital sodium was intravenously injected in an amount of 3 ml/kg (b.w.) to apply general anesthesia, and a median incision of its venter was carried out to extirpate the right kidney. Subsequently, the left kidney was exposed to infiltrate xylocaine into the surrounding portion of the renal pelvis, and the left renal artery was blocked while handling the kidney with tender care. More specifically, the blood flow of the renal artery was blocked for 60 minutes, and then released for 10 minutes, followed by blocking for more 60 minutes, to perform ischemia for 120 minutes in total. Thereafter, blocking was released for reperfusion. During these procedures, to the rabbits belonging to the PEP·Na group, PEP·Na was intravenously administered in the form of an injection prepared in Example, with a dose of 10 mg/kg (b.w.) every time immediately before release of the first and the second blocking, and, also after release of the blocking, PEP·Na was similarly administered with a dose of 10 mg/kg (b.w.) once a day. On the other hand, to the rabbits belonging to the control group, a physiological saline was intravenously administered in an amount of 1 ml/kg (b.w.) every time immediately before release of the first and the second blocking, and, also after release of the blocking, the physiological saline was similarly administered in an amount of 1 ml/kg (b.w.) once a day, every day.
Next, blood urea nitrogen (hereinafter "BUN") and creatinine value which are standards to know the morbidity of a kidney were assayed with time to make an index showing the recovery rate of renal function. Results obtained are shown in Table 1 and Table 2 and also in FIG. 1 and FIG. 2.

[2] = tested on: ischemic kidney of beagle; assay: Effect on ischemic kidney of beagle (BUN and creatinine value, recovery of renal function); assay type: in vivo, male beagles
Protocol: The animals used in this experiment were 6 male beagles, and were grouped into a group of 3 beagles to which the injection of PEP·Na prepared in Example should be administered and a group of 3 beagles to which a physiological saline should be administered, to carry out experiments as follows in the same manner as in Test Example 1.
To each of the beagles, a 5% aqueous solution of pentobarbital sodium was intravenously injected in an amount of 0.5 ml/kg (b.w.) to apply general anesthesia, and a median incision of its venter was carried out to extirpate the right kidney. Subsequently, the left kidney was exposed to infiltrate xylocaine into the surrounding portion of the renal pelvis, and the blood flow of the left renal artery was blocked for 90 minutes while handling the kidney with tender care. Thereafter, blocking was released for reperfusion. To the beagles belonging to the PEP·Na administered group, PEP·Na was intravenously administered in the form of an injection prepared in Example, with a dose of 100 mg/kg (b.w.) every time immediately after release of blocking, and, also, thereafter, PEP·Na was similarly administered with a dose of 100 mg/kg (b.w.) once a day every day. On the other hand, to the beagles belonging to the control group, physiological saline was intravenously administered in an amount of 10 ml/kg (b.w.) every time immediately after release of blocking, and, also thereafter, physiological saline was similarly administered in an amount of 10 ml/kg (b.w.) once a day.
Next, BUN and creatinine value were assayed with time to make an index showing the recovery rate of renal function. Results obtained are shown in Table 3 and Table 4 and also in FIG. 3 and FIG. 4.

[3] = Acute toxicity (LD50) to beagle; assay type: in vivo; details: dog, in vivo, beagle
Protocol: (§1) Acute toxicity (LD50) in the case where monosodium phosphoenolpyruvate monohydrate was administered to a beagle was examined.

beagle = assay: Acute toxicity (LD50) to beagle; assay type: in vivo; details: conclusion from LD50 in beagle
Protocol: as §1

[4] = after 1 day, 10 mg/kg i.v. before each release of blocking, then once a day
[5] = after 2 days, 10 mg/kg i.v. before each release of blocking, then once a day
[6] = after 3 days, 10 mg/kg i.v. before each release of blocking, then once a day
[7] = after 4 days, 10 mg/kg i.v. before each release of blocking, then once a day
[8] = after 5 days, 10 mg/kg i.v. before each release of blocking, then once a day
[9] = immediately before blocking (baseline)
[10] = rabbits, 1 day (24 hours) after release of blocking
[11] = rabbits, after day 1, over a period of 4 days, vs control group
[12] = after 1 day, 100 mg/kg i.v. immediately after release of blocking, then once a day
[13] = after 2 days, 100 mg/kg i.v. immediately after release of blocking, then once a day
[14] = after 3 days, 100 mg/kg i.v. immediately after release of blocking, then once a day
[15] = after 4 days, 100 mg/kg i.v. immediately after release of blocking, then once a day

Structure (SMILES): C=C(OP(=O)(O)O)C(=O)O [PEP.Na, monosodium phosphoenolpyruvate monohydrate]
- BUN of rabbits in PEP.Na-administered group [1, 4]: 54.2 ± 2.2 mg/dL
- Creatinine value of rabbits in PEP.Na-administered group [1, 4]: 2.83 ± 0.74 mg/dL
- BUN of rabbits in PEP.Na-administered group [1, 5]: 58.0 ± 15.2 mg/dL
- Creatinine value of rabbits in PEP.Na-administered group [1, 5]: 2.61 ± 0.87 mg/dL
- BUN of rabbits in PEP.Na-administered group [1, 6]: 44.1 ± 10.5 mg/dL
- Creatinine value of rabbits in PEP.Na-administered group [1, 6]: 2.06 ± 0.72 mg/dL
- BUN of rabbits in PEP.Na-administered group [1, 7]: 35.5 ± 11.0 mg/dL
- Creatinine value of rabbits in PEP.Na-administered group [1, 7]: 1.73 ± 0.40 mg/dL
- BUN of rabbits in PEP.Na-administered group [1, 8]: 15.0 ± 5.8 mg/dL
- Creatinine value of rabbits in PEP.Na-administered group [1, 8]: 1.19 ± 0.17 mg/dL
- Creatinine value of rabbits in PEP.Na-administered group [1, 9]: 1.18 ± 0.06 mg/dL
- BUN of rabbits in PEP.Na-administered group ([1]; immediately before blocking (baseline), mean ± spread): 14.5 ± 1.3 mg/dL
- recovery of renal function ([1]; rabbit): apparently effective for the recovery of renal function
- BUN compared with control group [1, 10]: significantly lower value of BUN
- creatinine compared with control group [1, 10]: significantly lower value of creatinine
- time course of BUN [1, 11]: gradually decreases thereafter over a period of 4 days and gets back to the value given before blocking earlier than in control group
- time course of creatinine [1, 11]: gradually decreases thereafter over a period of 4 days and gets back to the value before blocking earlier than in control group
- BUN of beagles in PEP.Na-administered group [2, 12]: 46 ± 8.3 mg/dL
- Creatinine value of beagles in PEP.Na-administered group [2, 12]: 3.0 ± 0.45 mg/dL
- BUN of beagles in PEP.Na-administered group [2, 13]: 63 ± 10.1 mg/dL
- Creatinine value of beagles in PEP.Na-administered group [2, 13]: 2.9 ± 0.41 mg/dL
- BUN of beagles in PEP.Na-administered group [2, 14]: 52 ± 9.6 mg/dL
- Creatinine value of beagles in PEP.Na-administered group [2, 14]: 2.5 ± 0.33 mg/dL
- BUN of beagles in PEP.Na-administered group [2, 15]: 44 ± 9.2 mg/dL
- Creatinine value of beagles in PEP.Na-administered group [2, 15]: 2.0 ± 0.31 mg/dL
- recovery of renal function ([2]; beagle): apparently effective for the recovery of renal function
- BUN compared with control group ([2]; beagles, 1 day (24 hours) after release of blocking): significantly lower value of BUN
- creatinine value compared with control group ([2]; beagles, 1 day after release of blocking): significantly lower value of creatinine value
- time course of creatinine value ([2]; beagles, after day 1, over a period of 3 days): gradually decreases thereafter over a period of 3 days
- time course of BUN ([2]; beagles, after release of blocking): reaches to a maximum after 2 days, but thereafter gradually decreases
- BUN of beagles in PEP.Na-administered group [2, 9]: 15 ± 0.5 mg/dL
- Creatinine value of beagles in PEP.Na-administered group [2, 9]: 0.8 ± 0.23 mg/dL
- LD50 ([3]; intravenous): ≥ 1000 mg/kg
- LD50 ([3]; oral): ≥ 3000 mg/kg
- safety to a living body (beagle): very safe substance
